# Measured values reported in patent publication US10450299B2, “Substituted quinazoline derivatives as DNA methyltransferase inhibitors” (Pierre Fabre Medicament, priority 2015, dated 2019).
# Legend:
# [1] = test system: KG-1 human leukemia cells; assay: Anti-proliferative activity on KG-1 (ATPLite cell viability); type: cell-based; conditions: KG-1 cells; for inhibition at 0.1 µM: compound at 0.1 μM, read-out: % proliferation inhibition 0.1 μM; for inhibition at 1 µM: compound at 1 μM, read-out: % proliferation inhibition 1 μM; for inhibition at 5 µM: compound at 5 μM, read-out: % proliferation inhibition 5 μM; for inhibition at 10 µM: compound at 10 μM, read-out: % proliferation inhibition 10 μM
# Experimental: Anti-Proliferative Activity. (on KG-1)
# KG-1 human leukemia cells were obtained from the ATCC (USA) and cultivated in RPMI 1640 medium (with HEPES and Glutamine, BE12-115F, Lonza, France) supplemented with, respectively, 20% and 15% foetal calf serum (Lonza, France), at 37° C. and under 5% CO2. To measure the anti-proliferative properties of tested molecules, 2×10^4 cells are seeded at day 0 in a 96 wells plate. The compounds to be tested, stored at −20° C. as 10^−2 M stock solution in 100% DMSO, are freshly diluted on day 1 in RPMI 1640 medium, before adding a dose range of 3.2 nM to 10 μM to the cells. This treatment is repeated on day 2 and 3, and on day 4 cell viability is assessed using the ATPLite™ kit from Perkin (ATPlite™ 1 Step Luminescence Assay System, ref 3016739), following the provider instructions. The raw data are analyzed with GraphPad Prism software (v4.03) to generate EC50 values corresponding to the compound concentrations giving 50% reduction in cell viability. The values presented are the mean results of at least two independent experiments. […]
# At the end of the experiment, cell viability was evaluated by determining the level of ATP released by viable cells.
# EC50 values were determined with curve fitting analysis method (non linear regression model with a sigmoid dose response, variable Hill slope coefficient) provided by the Prism Software (GraphPad). Results were expressed as average EC50 values (concentration of tested compound that inhibits 50% of the maximum effect for the considered compound).
# [2] = biological target: T1, human C-terminal DNMT3A (a.a. 623-908) (Homo sapiens, UniProt Q9Y6K1); assay: DNMT3A assay (restriction-based fluorescence assay); type: biochemical; conditions: for inhibition at 1 µM: compound at 1 μM; for inhibition at 3.2 µM: compound at 3.2 μM
# T1 construct: The human C-terminal DNMT3A (a.a. 623-908); made in house
# T1 sequence (Q9Y6K1 627-912): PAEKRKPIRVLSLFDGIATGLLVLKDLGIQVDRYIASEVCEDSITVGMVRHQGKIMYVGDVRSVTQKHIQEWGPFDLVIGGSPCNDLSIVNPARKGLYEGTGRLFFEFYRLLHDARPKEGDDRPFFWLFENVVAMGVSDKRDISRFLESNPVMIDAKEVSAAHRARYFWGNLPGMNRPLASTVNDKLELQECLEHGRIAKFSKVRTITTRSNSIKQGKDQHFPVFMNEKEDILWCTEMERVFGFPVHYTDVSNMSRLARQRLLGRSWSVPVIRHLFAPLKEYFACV
# From the text: DNMT3A enzyme inhibition was adapted from the restriction-based fluorescence assay protocol described in Ceccaldi et al. (ChemBioChem 2011, 12, 1337-45). Briefly, a 5′-labelled biotin oligonucleotide is hybridized to its complementary strand labelled with 6-carboxyfluorescein at the 3′-end into a 384 well microplate (black Optiplates; Perkin Elmer) pre-coated with avidin. The duplex contains a unique CpG site overlapping with a restriction site of a methylation sensitive restriction enzyme. The human C-terminal DNMT3A (a.a. 623-908), produced as described in Gros et al. (Nucleic Acids Research 2013 41(19):e185), was added in each well (200 ng/well) and mixed with the chemical compounds at desired concentrations and freshly prepared AdoMet (20 μM final concentration) to start the reaction in a total volume of 50 μL. After 1 hour incubation at 37° C. each well were washed three times with PBS, Tween-20 0.05%, NaCl (500 mM) and three more times with PBST. Specific fluorescent signals were detected with the methylation-sensitive restriction enzyme HpyCH4IV (NEB) as described and measured on a Perkin Elmer Envision detector. The percentage of inhibition is reported. The formula used to calculate the percentage of inhibition is [(X−Y)/X]×100, where X is the signal determined in the absence of the inhibitor and Y is the signal obtained in the presence of the inhibitor. The concentration at which 50% of efficacy of inhibition is observed (EC50) was determined by analysis of a concentration range of the tested compound in triplicates. The non-linear regression fittings with sigmoidal dose-response (variable slope) were performed with GraphPad Prism 4.03 (GraphPad Software).
# [3] = biological target: T2, His-DNMT1 (182 kDa, human) (Homo sapiens, UniProt P26358); assay: DNMT1 assay (tritiated SAM Flashplate methylation assay); type: biochemical; conditions: for inhibition at 10 µM: compound at 10 μM; for inhibition at 32 µM: compound at 32 μM
# T2 construct: His; made in house
# T2 sequence (P26358 whole entry): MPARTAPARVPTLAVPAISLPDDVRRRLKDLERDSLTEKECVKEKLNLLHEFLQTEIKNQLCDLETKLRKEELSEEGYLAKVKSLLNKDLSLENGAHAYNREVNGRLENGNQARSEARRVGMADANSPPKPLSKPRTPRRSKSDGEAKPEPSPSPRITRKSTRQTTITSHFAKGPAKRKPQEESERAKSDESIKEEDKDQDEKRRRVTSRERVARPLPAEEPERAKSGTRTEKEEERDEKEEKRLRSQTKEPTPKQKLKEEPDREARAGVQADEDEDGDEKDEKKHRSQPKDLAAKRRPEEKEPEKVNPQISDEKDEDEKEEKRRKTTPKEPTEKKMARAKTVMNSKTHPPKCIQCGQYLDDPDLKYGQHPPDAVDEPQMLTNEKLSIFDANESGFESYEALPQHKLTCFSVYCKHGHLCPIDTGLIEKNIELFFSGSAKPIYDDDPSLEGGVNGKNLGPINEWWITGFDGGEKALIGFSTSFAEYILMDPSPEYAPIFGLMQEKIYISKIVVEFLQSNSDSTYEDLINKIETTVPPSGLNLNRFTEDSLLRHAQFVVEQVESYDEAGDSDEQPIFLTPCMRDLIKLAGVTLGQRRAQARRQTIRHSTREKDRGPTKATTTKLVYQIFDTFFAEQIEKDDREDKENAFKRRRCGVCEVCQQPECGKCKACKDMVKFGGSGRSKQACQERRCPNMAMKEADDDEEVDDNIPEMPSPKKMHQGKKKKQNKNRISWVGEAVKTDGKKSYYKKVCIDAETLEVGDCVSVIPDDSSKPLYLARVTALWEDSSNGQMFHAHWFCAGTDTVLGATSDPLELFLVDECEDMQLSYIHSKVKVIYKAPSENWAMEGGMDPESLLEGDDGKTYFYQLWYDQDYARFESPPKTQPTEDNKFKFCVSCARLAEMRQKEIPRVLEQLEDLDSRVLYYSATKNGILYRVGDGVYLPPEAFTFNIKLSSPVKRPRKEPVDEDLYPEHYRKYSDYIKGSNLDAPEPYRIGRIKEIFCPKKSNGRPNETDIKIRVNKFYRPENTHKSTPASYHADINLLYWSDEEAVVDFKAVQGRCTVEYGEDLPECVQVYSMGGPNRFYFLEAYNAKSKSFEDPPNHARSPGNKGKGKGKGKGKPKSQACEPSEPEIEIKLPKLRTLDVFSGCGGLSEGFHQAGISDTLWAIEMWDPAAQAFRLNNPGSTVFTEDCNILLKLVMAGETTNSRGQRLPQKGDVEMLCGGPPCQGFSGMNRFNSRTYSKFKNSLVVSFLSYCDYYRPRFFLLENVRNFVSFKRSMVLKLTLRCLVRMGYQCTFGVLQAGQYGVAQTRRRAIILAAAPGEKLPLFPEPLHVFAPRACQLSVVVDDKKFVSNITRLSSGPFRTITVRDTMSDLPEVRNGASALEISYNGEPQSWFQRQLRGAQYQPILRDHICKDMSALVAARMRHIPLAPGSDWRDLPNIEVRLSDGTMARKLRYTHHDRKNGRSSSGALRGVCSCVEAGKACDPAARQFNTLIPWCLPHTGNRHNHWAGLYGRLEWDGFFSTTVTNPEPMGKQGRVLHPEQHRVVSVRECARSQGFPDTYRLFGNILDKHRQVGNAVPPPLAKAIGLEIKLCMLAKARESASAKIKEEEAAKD
# Experimental: His-DNMT1 (182 kDa, human) was cloned, expressed and purified as described in Halby et al. (ChemBioChem 2012, 13, 157-65). The reaction was performed in a 10 μL total reaction volume in low volume NBS™ 384-well microplates (Corning), containing the tested compound (up to 1% DMSO), 1 μM of a SAM/[methyl-^3H] SAM (3 TBq/mmol, PerkinElmer) mix in a ratio of 3-to-1 (isotopic dilution 1*:3), 0.3 μM of biotinylated hemimethylated DNA duplex (5′-GATmCGCmCGATGmCGmCGAATmCGmCGATmCGATGmCGAT-3′ and BIOT-5′-[…]-3′), and 90 nM of DNMT1 in methylation buffer (20 mM HEPES pH 7.2, 1 mM EDTA, 50 mM KCl, 25 μg/mL BSA). The reaction was incubated at 37° C. for 2 hours. 8 μL are then transferred into a streptavidin 96-well scintillant coated Flashplate™ (PerkinElmer) containing 190 μL of 20 μM SAH in 50 mM Tris-HCl pH 7.4. The Flashplate™ was agitated at room temperature for 1 hour, washed three times with 200 μL of 0.05% Tween®-20 in 50 mM Tris-HCl pH 7.4, and read in 200 μL of 50 mM Tris-HCl pH 7.4 on TopCount NXT™ (PerkinElmer).
# [4] = test system: luciferase reporter gene under the control of the partially methylated CMV promoter in KG-1 cell line; assay: Gene expression (CMV-Luc reactivation) in KG-1 cells; type: cell-based, human; conditions: 24 h, induction factor vs DMSO control, mean of 3 experiments ± standard error; for Reactivation fold of luciferase gene reporter, 0.1 μM: compound at 0.1 μM; for Reactivation fold of luciferase gene reporter, 1 μM: compound at 1 μM; for Reactivation fold of luciferase gene reporter, 5 μM: compound at 5 μM; for Reactivation fold of luciferase gene reporter, 10 μM: compound at 10 μM
# Experimental: Gene Expression. (CMV-Luc Reactivation)
# KG-1 cell line, stably transfected with the luciferase Firefly (Luc+ from pGL3 by Promega) reporter gene under the control of the CMV promoter (from pEGFP-N1 by Clontech) partially methylated (50%), is seeded at 20,000 cell per well in 96-well plate. After 24 h of incubation in the presence of the compounds or the solvant DMSO, the induction of the promoter is measured by quantification of luciferase with the Brite-lite™ assay system (Perkin Elmer) according to the manufacturer protocol. The luminescence is measured on EnVision™ Multilabel Plate Reader (Perkin Elmer) and the data are expressed in induction factor compared to the DMSO control condition.
SMILES,inhibition at 0.1 µM [1],inhibition at 1 µM [1],inhibition at 5 µM [1],inhibition at 10 µM [1],inhibition at 1 µM [2],inhibition at 3.2 µM [2],EC50 [3],inhibition at 10 µM [3],inhibition at 32 µM [3],"Reactivation fold of luciferase gene reporter, 0.1 μM [4]","Reactivation fold of luciferase gene reporter, 1 μM [4]","Reactivation fold of luciferase gene reporter, 5 μM [4]","Reactivation fold of luciferase gene reporter, 10 μM [4]"
"CCN(CC)CCNc1nc(NCCCc2ccccc2)c2ccc(OCC3CCN(CCNc4ccnc5ccccc45)CC3)cc2n1 [Compound D, 4-((3-phenylpropyl)amino)-N^2-(2-(diethylamino)ethylenediamine)-7-((1-(2-(quinolin-4-ylamino)ethyl)piperidin-4-yl)methoxy)quinazoline]",-2.3%,13.2%,79.7%,99.5%,52%,81%,13 µM,35%,98%,1.1 ± 0.0 fold,1.7 ± 0.0 fold,12.7 ± 0.6 fold,1.1 ± 1.0 fold
"Clc1nc(NCCCc2ccccc2)c2ccc(OCC3CCN(CCNc4ccnc5ccccc45)CC3)cc2n1 [Compound B, 4-((3-phenylpropyl)amino)-2-chloro-7-((1-(2-(quinolin-4-ylamino)ethyl)piperidin-4-yl)methoxy)quinazoline]",-1.7%,3.8%,95.9%,99.9%,0%,73%,19 µM,5%,93%,1.1 ± 0.0 fold,1.4 ± 0.0 fold,5.8 ± 1.6 fold,0.0 ± 0.0 fold
"Oc1ccc2c(NCCCc3ccccc3)ncnc2c1CN1CCN(CCNc2ccnc3ccccc23)CC1 [Compound A, 4-((3-phenylpropyl)amino)-8-((1-(2-(quinolin-4-ylamino)ethyl)piperazin-1-ylmethyl))quinazoline-7-ol]",-0.8%,6.1%,29.7%,84.5%,0%,18%,–,0%,0%,1.1 ± 0.1 fold,1.2 ± 0.1 fold,4.4 ± 0.5 fold,6.0 ± 0.6 fold
"CN1CCN(c2nc(NCCCc3ccccc3)c3ccc(OCC4CCN(CCNc5ccnc6ccccc56)CC4)cc3n2)CC1 [Compound C, 4-((3-phenylpropyl)amino)-7-((1-(2-(quinolin-4-ylamino)ethyl)piperidin-4-yl)methoxy)-2-(4-methylpiperazin-1-yl)quinazoline]",-3.1%,5.7%,99.1%,99.7%,0%,43%,23 µM,0%,94%,1.1 ± 0.0 fold,1.7 ± 0.1 fold,0.1 ± 0.0 fold,0.0 ± 0.0 fold
